Key:
[1] = tested on: patients with moderate to severe COPD; experiment: Clinical study of nebulized ensifentrine versus placebo in COPD: average FEV1 AUC0-12h at week 12; assay type: in vivo, human
Protocol: A clinical study was conducted to determine the efficacy of ensifentrine in treating COPD compared with placebo. Ensifentrine was administered by nebulizer at a dose of 3 mg twice daily (BID) for 24 weeks. The study was a multicenter, randomized, double-blind, parallel group, placebo-controlled trial with around 800 patients and 5:3 randomization.
The study population included patients aged 40-80 years with moderate to severe COPD (FEV1 30%-70% p.n., FEV1/forced vital capacity (FVC) ratio<0.7, with mMRC≥2). The randomization stratified (a) the use of stable background maintenance LAMA or LABA therapy use (approx. 50% yes or no) and (b) cigarette smoking (current or former). Inhaled corticosteroid (ICS) maintenance therapy was permitted in up to 20% of patients under certain provisions.
The primary endpoint of the study was change from baseline in average FEV1 area under the curve (AUC0-12h) […] at week 12; morning trough FEV1 at week 12; and other endpoints including moderate/severe COPD exacerbations frequency over 24 weeks.
Baseline FEV1 is the mean of the two measurements taken before study medication on the day of first dosing, i.e., ≤40 minutes and just prior to dosing, both pre-dose on day 1. Average FEV1 AUC0-12h is defined as area under the curve over 12 h of the FEV1, divided by 12 h.
The investigational product and placebo were provided in 2.5 mL unit dose format in an ampule and administered via a nebulizer. The formulation of the investigational product (ensifentrine suspension formulation comprising crystalline polymorph Form I of ensifentrine) and placebo are shown in Table 2.

[2] = Dose normalized steady-state AUCtau in non-COPD subjects with and without hepatic impairment; assay type: in vivo, human; conditions: for AUC: human, plasma, inhaled, 3 mg, dose normalized to 3 mg, FIG. 3
Protocol: The dose normalized steady-state AUCtau for a 3 mg dose in non-COPD subjects with and without hepatic impairment is shown in FIG. 3. As described in FIG. 3 the AUCtau,ss of healthy subjects was from about 5000 pg/mL*h to about 9000 pg/mL*h. The AUCtau,ss of subjects with moderate hepatic impairment was about 4000 pg/mL*h to about 11000 pg/mL*h. The AUCtau,ss of subjects with severe hepatic impairment was about 5500 pg/mL*h to about 6500 pg/mL*h. […] The highest dose normalized AUCtau,ss observed in this subset was for a subject with moderate hepatic impairment, but this was not the highest exposure in the overall dataset as it was exceeded by two other subjects with COPD.

[3] = popPK model simulation of ensifentrine PK by renal function (virtual population of COPD subjects); set-up: species or system human; conditions: nebulization of 3 mg, simulated
Protocol: Plasma concentrations of ensifentrine for the assessment of pharmacokinetic (PK) parameters were measured using validated bioanalytical methods for ensifentrine in human plasma with LLOQ of 5 pg/mL. Samples were taken on the following schedule: • Week 6: 1.0 h (±0.5 h) and 2.5 h (±0.5 h) (even sites) or 1.5 h and 4 h (±1 h) (odd sites); • Week 12: pre-dose (−0.5 h), 4 to 6 h, and 8 to 12 h (even sites) or 0.5 h (±0.25 h), 3 h (±0.5 h), and 6 to 8 h (odd sites); • Week 24: pre-dose (−0.5 h) and 1.5 h (even sites) or pre-dose (−0.5 h) and 1 h (±0.5 h) (odd sites)
Based on the samples taken during the trial, PK data was modelled for COPD patients with varying levels of renal function:
A two-compartment model with first-order input and first-order elimination from the central compartment was fit to the plasma concentration-time data of ensifentrine using NONMEM® version 7.4.4. Different absorption functions and compartmental structures were explored. […]
The final model was evaluated using goodness of fit plots, bootstrap analysis, and visual predictive checks (VPCs). […]
Subjects with normal renal function to mild renal impairment are defined as those individuals with an absolute estimated glomerular filtration rate (aEGFR) of greater than or equal to 60 mL/min. […] Individual subject concentrations were simulated using NONMEM version 7.4.3, and PK parameters were calculated using R version 3.4.0. […]

AUC ([2]; healthy subjects): 5 to 9 ng·h/mL
AUC ([2]; subjects with moderate hepatic impairment (n=10)): 4 to 11 ng·h/mL
AUC ([2]; subjects with severe hepatic impairment (n=2)): 5.5 to 6.5 ng·h/mL
Exposure (AUC) in hepatic impairment versus healthy subjects ([2]; moderate (n=10) or severe (n=2) hepatic impairment): comparable to healthy subjects
AUC ratio aEGFR < 60 mL/min: ≥60 mL/min [3]: 1.30
Cmax ratio aEGFR < 60 mL/min: ≥60 mL/min [3]: 1.16
SMILES: COc1cc2c(cc1OC)-c1c/c(=N\c3c(C)cc(C)cc3C)n(CCNC(N)=O)c(=O)n1CC2 [Ensifentrine, N-(2-{(2E)-9,10-dimethoxy-4-oxo-2-[(2,4,6-trimethylphenyl)imino]-6,7-dihydro-2H-pyrimido[6,1-a]isoquinolin-3(4H)-yl}ethyl)urea]
Average FEV1 (AUC)0-12 h post-dose at Week 12: Change from Baseline, CFB Least Squares Mean (95% CI) ([1]; 3 mg BID by nebulizer, week 12, n = 498): 48.2 (30.0, 66.5) mL
Average FEV1 (AUC)0-12 h post-dose at Week 12: Placebo-corrected CFB LS Mean Diff. (95% CI) ([1]; 3 mg BID by nebulizer, week 12, versus placebo): 93.9 (64.5, 123.3) mL
Improvement in lung function ([1]; individuals with normal renal function to mild renal impairment and subjects with moderate renal impairment): statistically significant improvement in lung function
